Several values for one entry are separate records, joined by “and”; a condition that tells them apart may be missing. Equal entries are not always repeated. Inconclusive results and toxic doses are left out.
Tested on: CD2F1 mice, L1210 leukemia ip, survival T/C
Assay: NCI In Vivo Anticancer Drug Screen. Data for tumor model L1210 Leukemia (intraperitoneal) in CD2F1 (CDF1) mice
Conditions: higher = longer survival
In short: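 Compound-dosed mice with transplantable tumor versus matched vehicle controls; endpoint ratio T/C reported.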

[1] = endpoint: mean survival time, dose: 100.0 mg/kg/injection, schedule: Q01DX009 (ip), vehicle: saline with Tween-80
[2] = endpoint: mean survival time, dose: 200.0 mg/kg/injection, schedule: Q01DX009 (ip), vehicle: saline with Tween-80
[3] = endpoint: mean survival time, dose: 100.0 mg/kg/injection, schedule: Q01DX001 (ip), vehicle: saline
[4] = endpoint: mean survival time, dose: 200.0 mg/kg/injection, schedule: Q01DX001 (ip), vehicle: saline
[5] = endpoint: mean survival time, dose: 400.0 mg/kg/injection, schedule: Q01DX001 (ip), vehicle: saline
[6] = endpoint: mean survival time, dose: 50.0 mg/kg/injection, schedule: Q01DX009 (ip), vehicle: saline
[7] = endpoint: mean survival time, dose: 100.0 mg/kg/injection, schedule: Q01DX009 (ip), vehicle: saline
[8] = endpoint: mean survival time, dose: 200.0 mg/kg/injection, schedule: Q01DX009 (ip), vehicle: saline
[9] = endpoint: mean survival time, dose: 100.0 mg/kg/injection, schedule: Q04DX003 (ip), vehicle: saline
[10] = endpoint: mean survival time, dose: 200.0 mg/kg/injection, schedule: Q04DX003 (ip), vehicle: saline
[11] = endpoint: mean survival time, dose: 50.0 mg/kg/injection, schedule: Q01DX009 (ip), vehicle: saline with Tween-80

In the case of `COC(=O)c1ccccc1-c1ccccc1C(=O)O`, the T/C (endpoint: mean survival time, dose: 44.0 mg/kg/injection, schedule: Q01DX001 (ip), vehicle: other) is reported as 97 % of control, the T/C (endpoint: mean survival time, dose: 66.0 mg/kg/injection, schedule: Q01DX001 (ip), vehicle: other) is reported as 97 % of control and the T/C (endpoint: mean survival time, dose: 100.0 mg/kg/injection, schedule: Q01DX001 (ip), vehicle: other) is reported as 103 % of control. For the same molecule, the T/C (endpoint: mean survival time, dose: 150.0 mg/kg/injection, schedule: Q01DX001 (ip), vehicle: other) was 100 % of control.

`O=C(O)CCCCCCC(=O)c1ccccc1` was tested, and the T/C [1] was 98 % of control, the T/C [2] was 97 % of control and the T/C (endpoint: mean survival time, dose: 400.0 mg/kg/injection, schedule: Q01DX009 (ip), vehicle: saline with Tween-80) was 93 % of control.

With `Cc1cc(N)nc2ccccc12` the T/C (endpoint: mean survival time, dose: 3.12 mg/kg/injection, schedule: Q04DX002 (ip), vehicle: saline with Tween-80) was 101 % of control, the T/C (endpoint: mean survival time, dose: 6.25 mg/kg/injection, schedule: Q04DX002 (ip), vehicle: saline with Tween-80) was 105 % of control and the T/C (endpoint: mean survival time, dose: 12.5 mg/kg/injection, schedule: Q04DX002 (ip), vehicle: saline with Tween-80) was 94 % of control and 101 % of control.

`Cc1ccc(S(=O)(=O)OCCc2cccc3ccccc23)cc1` was tested, and the T/C [3] was 101 % of control, the T/C [4] was 101 % of control and the T/C [5] was 98 % of control.

For `COC1C(O)C(CO)OC1n1cc(F)c(=O)[nH]c1=O` (stereo not given), the T/C [6] was 104 % of control, the T/C [7] was 100 % of control and the T/C [8] was 115 % of control.

With `OCCN1CCOCC1` the T/C [7] was 103 % of control, the T/C [9] was 98 % of control and the T/C [8] was 102 % of control. For the same molecule, the T/C [10] was 95 % of control, the T/C (endpoint: mean survival time, dose: 400.0 mg/kg/injection, schedule: Q01DX009 (ip), vehicle: saline) was 103 % of control and the T/C (endpoint: mean survival time, dose: 400.0 mg/kg/injection, schedule: Q04DX003 (ip), vehicle: saline) was 97 % of control.

With `C[Si](C)(C)OC1CC(=O)OC1n1cc(F)c(=O)[nH]c1=O` (stereo not given) the T/C (endpoint: median survival time, dose: 12.5 mg/kg/injection, schedule: Q01DX005 (ip), vehicle: saline) was 103 % of control, the T/C (endpoint: median survival time, dose: 25.0 mg/kg/injection, schedule: Q01DX005 (ip), vehicle: saline) was 107 % of control and the T/C (endpoint: median survival time, dose: 50.0 mg/kg/injection, schedule: Q01DX005 (ip), vehicle: saline) was 113 % of control. For the same molecule, the T/C (endpoint: median survival time, dose: 100.0 mg/kg/injection, schedule: Q01DX005 (ip), vehicle: saline) was 116 % of control.

For `COc1ccccc1NC(=O)OCC#CCOC(=O)Nc1ccccc1OC`, the T/C (endpoint: mean survival time, dose: 100.0 mg/kg/injection, schedule: Q01DX009 (ip), vehicle: Klucel (hydroxypropylcellulose) (HPC)) was 91 % of control, the T/C (endpoint: mean survival time, dose: 200.0 mg/kg/injection, schedule: Q01DX009 (ip), vehicle: Klucel (hydroxypropylcellulose) (HPC)) was 91 % of control and the T/C (endpoint: mean survival time, dose: 400.0 mg/kg/injection, schedule: Q01DX009 (ip), vehicle: Klucel (hydroxypropylcellulose) (HPC)) was 92 % of control.

In the case of `O=C(O)Cn1nnc2ccccc21`, the T/C (endpoint: mean survival time, dose: 25.0 mg/kg/injection, schedule: Q01DX009 (ip), vehicle: saline with Tween-80) is reported as 100 % of control, the T/C (endpoint: mean survival time, dose: 25.0 mg/kg/injection, schedule: Q01DX009 (ip), vehicle: saline) is reported as 102 % of control and the T/C [11] is reported as 97 % of control. The T/C [6] was 102 % of control, the T/C [1] was 97 % of control and the T/C [7] was 98 % of control. The T/C [2] was 100 % of control and the T/C [8] was 100 % of control.

With `COc1ccc2c(c1)CCC1C2CCC2(C)C(=O)OC(=O)C12` (stereo not given) the T/C (endpoint: mean survival time, dose: 100.0 mg/kg/injection, schedule: Q04DX003 (sc), vehicle: steriod suspending solution) was 101 % of control, the T/C (endpoint: mean survival time, dose: 200.0 mg/kg/injection, schedule: Q04DX003 (sc), vehicle: steriod suspending solution) was 95 % of control and the T/C (endpoint: mean survival time, dose: 400.0 mg/kg/injection, schedule: Q04DX003 (sc), vehicle: steriod suspending solution) was 98 % of control.

`O=C(O)c1cc(Cl)[nH]c(=O)c1` was tested, and the T/C (endpoint: mean survival time, dose: 100.0 mg/kg/injection, schedule: Q04DX003 (ip), vehicle: saline with Tween-80) was 91 % of control, the T/C (endpoint: mean survival time, dose: 200.0 mg/kg/injection, schedule: Q04DX003 (ip), vehicle: saline with Tween-80) was 91 % of control and the T/C (endpoint: mean survival time, dose: 400.0 mg/kg/injection, schedule: Q04DX003 (ip), vehicle: saline with Tween-80) was 91 % of control.

With `CC[C@@]1(O)C(=O)OCc2c1cc1n(c2=O)Cc2cc3cc(OC)ccc3nc2-1` the T/C (endpoint: mean survival time, dose: 0.78 mg/kg/injection, schedule: Q04DX003 (ip), vehicle: water) was 119 % of control, the T/C (endpoint: mean survival time, dose: 3.13 mg/kg/injection, schedule: Q04DX003 (ip), vehicle: water) was 155 % of control and 181 % of control and the T/C (endpoint: mean survival time, dose: 6.25 mg/kg/injection, schedule: Q04DX003 (ip), vehicle: water) was 113 % of control.

With `CCOC(=O)C(C)S(=O)(=O)O` (stereo not given) the T/C (endpoint: mean survival time, dose: 100.0 mg/kg/injection, schedule: Q04DX002 (ip), vehicle: saline) was 91 % of control, the T/C (endpoint: mean survival time, dose: 200.0 mg/kg/injection, schedule: Q04DX002 (ip), vehicle: saline) was 100 % of control and the T/C (endpoint: mean survival time, dose: 400.0 mg/kg/injection, schedule: Q04DX002 (ip), vehicle: saline) was 100 % of control.

In the case of `CCOP(=O)(OCC)c1ncn(C2OC(CO)C3OC(C)(C)OC32)c1N` (stereo not given), the T/C (endpoint: mean survival time, dose: 12.5 mg/kg/injection, schedule: Q01DX005 (ip), vehicle: water) is reported as 92 % of control, the T/C (endpoint: mean survival time, dose: 25.0 mg/kg/injection, schedule: Q01DX005 (ip), vehicle: water) is reported as 100 % of control and the T/C (endpoint: mean survival time, dose: 50.0 mg/kg/injection, schedule: Q01DX005 (ip), vehicle: water) is reported as 96 % of control. For the same molecule, the T/C (endpoint: mean survival time, dose: 100.0 mg/kg/injection, schedule: Q01DX005 (ip), vehicle: water) was 92 % of control and the T/C (endpoint: mean survival time, dose: 200.0 mg/kg/injection, schedule: Q01DX005 (ip), vehicle: water) was 92 % of control.

For `CC(N)C(=O)NC1C(CO)OC(n2cnc3c(N)ncnc32)C1O` (stereo not given), the T/C [3] was 100 % of control, the T/C [4] was 97 % of control and the T/C [5] was 100 % of control.

`CCCCN(C)N=Nc1cccnc1` was tested, and the T/C (endpoint: mean survival time, dose: 13.0 mg/kg/injection, schedule: Q01DX009 (ip), vehicle: saline) was 90 % of control, the T/C (endpoint: mean survival time, dose: 19.0 mg/kg/injection, schedule: Q01DX009 (ip), vehicle: saline) was 109 % of control and the T/C (endpoint: mean survival time, dose: 28.0 mg/kg/injection, schedule: Q01DX009 (ip), vehicle: saline) was 109 % of control. For the same molecule, the T/C (endpoint: mean survival time, dose: 42.0 mg/kg/injection, schedule: Q01DX009 (ip), vehicle: saline) was 92 % of control.

`NCC(Br)CO` (stereo not given) was tested, and the T/C (endpoint: mean survival time, dose: 31.3 mg/kg/injection, schedule: Q01DX001 (ip), vehicle: other) was 95 % of control, the T/C (endpoint: mean survival time, dose: 62.5 mg/kg/injection, schedule: Q01DX001 (ip), vehicle: other) was 95 % of control and the T/C (endpoint: mean survival time, dose: 125.0 mg/kg/injection, schedule: Q01DX001 (ip), vehicle: other) was 100 % of control. For the same molecule, the T/C (endpoint: mean survival time, dose: 250.0 mg/kg/injection, schedule: Q01DX001 (ip), vehicle: other) was 101 % of control and the T/C (endpoint: mean survival time, dose: 500.0 mg/kg/injection, schedule: Q01DX001 (ip), vehicle: other) was 97 % of control.

`N#C[Se]CC[Se]C#N` was tested, and the T/C (endpoint: mean survival time, dose: 6.25 mg/kg/injection, schedule: Q01DX001 (ip), vehicle: saline with Tween-80) was 94 % of control, the T/C (endpoint: mean survival time, dose: 12.5 mg/kg/injection, schedule: Q01DX001 (ip), vehicle: saline with Tween-80) was 98 % of control and the T/C (endpoint: mean survival time, dose: 25.0 mg/kg/injection, schedule: Q01DX001 (ip), vehicle: saline with Tween-80) was 103 % of control.

`Cc1ccc(CCl)cc1` was tested, and the T/C [11] was 115 % of control and the T/C [1] was 92 % of control.

For `C=CCNc1ncnc2c1cnn2C`, the T/C [9] was 106 % of control and the T/C [10] was 104 % of control.

For `COC(=O)C(C#N)=C(C)C`, the T/C (endpoint: mean survival time, dose: 10.0 mg/kg/injection, schedule: Q01DX009 (ip), vehicle: saline with Tween-80) was 110 % of control, the T/C (endpoint: mean survival time, dose: 10.0 mg/kg/injection, schedule: Q04DX003 (ip), vehicle: saline) was 96 % of control and the T/C (endpoint: mean survival time, dose: 20.0 mg/kg/injection, schedule: Q01DX009 (ip), vehicle: saline with Tween-80) was 101 % of control. The T/C (endpoint: mean survival time, dose: 20.0 mg/kg/injection, schedule: Q04DX003 (ip), vehicle: saline) was 96 % of control, the T/C (endpoint: mean survival time, dose: 40.0 mg/kg/injection, schedule: Q01DX009 (ip), vehicle: saline with Tween-80) was 104 % of control and the T/C (endpoint: mean survival time, dose: 40.0 mg/kg/injection, schedule: Q04DX003 (ip), vehicle: saline) was 96 % of control.

In the case of `O=[N+]([O-])c1ccc(Cl)c(P(=O)(O)c2cc([N+](=O)[O-])ccc2Cl)c1`, the T/C (endpoint: mean survival time, dose: 50.0 mg/kg/injection, schedule: Q04DX003 (ip), vehicle: saline) is reported as 100 % of control, the T/C [9] is reported as 101 % of control and the T/C [10] is reported as 100 % of control.

In the case of `Nc1ccn(C2CC(O)C(CO)C2)c(=O)n1` (stereo not given), the T/C [3] is reported as 100 % of control, the T/C [4] is reported as 105 % of control and the T/C [5] is reported as 97 % of control.

Reference: PubChem BioAssay AID256 (DTP/NCI, 2004)
